Source: PubChem BioAssay AID1963835 (Molecular Pharmacology Branch, DTP, NCI, 2024)
Values joined by “and” are separate entries in the source; they are usually repeats but may differ in a detail not shown here. Identical values can stand only once.

System: 699152-130-R-J1-PDC complex spheroid viability
Test: Anticancer human tumor 699152-130-R-J1-PDC patient-derived pancreatic carcinoma cell line growth inhibition [POLQ]
Details: for viability, T/C: stronger effect = lower value
Protocol: Multicellular complex tumor spheroid response to Polymerase (POL) inhibitors (novobiocin, ART-558, RP6685) in combination with a variety of drugs and investigational agents in selected tumor cell lines
The POL inhibitors (novobiocin, ART-558, and RP6685) were evaluated both individually and in combination with standard of care and investigational anticancer small molecules within a complex spheroid model of solid tumors. . Complex spheroids include a stromal component modeled by human endothelial cells (HUVEC) and fibroblasts modeled by human mesenchymal stem cells (MSCs). The concentration ranges selected for each drug and investigational agent were based upon clinically achievable concentrations if the clinical Cmax of the agent was known.
Compounds. The drugs and investigational agents: novobiocin (NSC847541), ART-558 (NSC835418), RP-6685 (NSC848927), peposertib (NSC802822), ceralasertib (NSC780249), elimusertib (NSC800525), camonsertib (NSC841442), AZD-1390 (NSC803789), olaparib (NSC753686), talazoparib (NSC767125), rucaparib (NSC756644), sotorasib (NSC818433), MRTX-1133 (NSC836407), SN-38 (NSC673596), topotecan (NSC609699), epotoside (NSC141540), doxorubicin (NSC123127), gemcitabine (NSC613327), 5-fluorouracil (NSC19893), paclitaxel (NSC125973), vemurafenib (NSC761431), MSA-2 (NSC828583), SN-011 (NSC837082), adavosertib (NSC754352), prexasertib (NSC758257), carboplatin (NSC241240) and oxaliplatin (NSC266046), were obtained from the National Cancer Institute (NCI) Developmental Therapeutics Program Chemical Repository (21). The FDA-approved anticancer drug set is available from the Developmental Therapeutics Program at https://dtp.cancer.gov/organization/dscb/obtaining/. […] The stock solutions were prepared in dimethyl sulfoxide (DMSO, Sigma-Aldrich, St. Louis, MO, cat. D2650), except for the platinum compounds which were prepared in saline (Quality Biological, Gaithersburg, MD, cat. 114-055-101), at 800-fold the tested concentration and stored at -70 degrees C prior to their use. All drugs and investigational agents were tested over a range starting from a high concentration at or near the clinical Cmax and decreasing in half-log increments. If the clinical Cmax for an agent had not been determined, the highest concentration tested was 10 microM, except for SN-38, which was tested at a high concentration of 1 microM.
Cell Culture. All cells were maintained in an incubator at 37 degrees C and 5% CO2 with 95% humidity. The PDC lines were cultured according to standard operating procedures established by the NCI PDMR (https://pdmr.cancer.gov). Table 3 of the manuscript, lists the cell lines along with the number of the three cell types plated to form the mct-spheroids and media for tumor cell growth. After thawing, all PDC lines, except 997537-175-T-J1-PDC and 415267-285-R-J2-PDC, were cultured in Matrigel-coated flasks prepared with a working solution of 1X Ham's F-12 nutrient mix, without supplementation (Thermo Fisher Scientific, cat. 11765054), 100 U/mL penicillin-streptomycin (Thermo Fisher Scientific, cat. 15140122), and 2.5% Matrigel (Corning Inc., Corning, NY, cat. 354248) for the first three passages. The two PDC lines 997537-175-T-J1-PDC and 415267-285-R-J2-PDC were cultured on uncoated flasks. The 857933-349-R-J2-PDC line was cultured in 6C/Colon 1B media containing advanced DMEM/F-12 (Thermo Fisher Scientific, cat. 12634028), 10 mM HEPES (Thermo Fisher Scientific, cat. 15630080), 1X GlutaMAX supplement (Thermo Fisher Scientific, cat. 35050061), 0.1 mg/mL primocin (InvivoGen, San Diego, CA, cat. ant-pm-2), 10% defined fetal bovine serum, heat inactivated (HyClone Laboratories Inc., Logan, UT, cat. SH30070.03HI), 50% L-WRN conditioned media (ATCC, cat. CRL-3276), 1.25 mM N-Acetyl-L-cysteine (Sigma-Aldrich, cat. A9165), 10 mM nicotinamide (Sigma-Aldrich, cat. N0636), 1X B-27 supplement (Thermo Fisher Scientific, cat. 17504044), 1X N-2 supplement (Thermo Fisher Scientific, cat. […]

[1] = curve of first compound, second compound 0.0316 µM
[2] = curve of first compound, second compound 0.1 µM
[3] = curve of first compound, second compound 0.316 µM
[4] = curve of first compound, second compound 1 µM
[5] = curve of first compound, second compound 3.16 µM
[6] = curve of first compound, second compound 10 µM
[7] = second compound 0.0316 µM, first compound 0.0316 µM
[8] = second compound 0.0316 µM, first compound 0.1 µM
[9] = second compound 0.0316 µM, first compound 0.316 µM
[10] = second compound 0.0316 µM, first compound 1 µM
[11] = second compound 0.0316 µM, first compound 3.16 µM
[12] = second compound 0.0316 µM, first compound 10 µM
[13] = second compound 0.1 µM, first compound 0.0316 µM
[14] = second compound 0.1 µM, first compound 0.1 µM
[15] = second compound 0.1 µM, first compound 0.316 µM
[16] = second compound 0.1 µM, first compound 1 µM
[17] = second compound 0.1 µM, first compound 3.16 µM
[18] = second compound 0.1 µM, first compound 10 µM
[19] = second compound 0.316 µM, first compound 0.0316 µM
[20] = second compound 0.316 µM, first compound 0.1 µM
[21] = second compound 0.316 µM, first compound 0.316 µM
[22] = second compound 0.316 µM, first compound 1 µM
[23] = second compound 0.316 µM, first compound 3.16 µM
[24] = second compound 0.316 µM, first compound 10 µM
[25] = second compound 1 µM, first compound 0.0316 µM
[26] = second compound 1 µM, first compound 0.1 µM
[27] = second compound 1 µM, first compound 0.316 µM
[28] = second compound 1 µM, first compound 1 µM
[29] = second compound 1 µM, first compound 3.16 µM
[30] = second compound 1 µM, first compound 10 µM
[31] = second compound 3.16 µM, first compound 0.0316 µM
[32] = second compound 3.16 µM, first compound 0.1 µM
[33] = second compound 3.16 µM, first compound 0.316 µM
[34] = second compound 3.16 µM, first compound 1 µM
[35] = second compound 3.16 µM, first compound 3.16 µM
[36] = second compound 3.16 µM, first compound 10 µM
[37] = second compound 10 µM, first compound 0.0316 µM
[38] = second compound 10 µM, first compound 0.1 µM
[39] = second compound 10 µM, first compound 0.316 µM
[40] = second compound 10 µM, first compound 1 µM
[41] = second compound 10 µM, first compound 3.16 µM
[42] = second compound 10 µM, first compound 10 µM
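Also: spheroids exposed to agents for 7 days before viability reading.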
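For viability, T/C in this document: percent of DMSO vehicle control viability so 100% = vehicle and 0% = no viable signal.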

SMILES: CC1COCCN1c1cc(C2(S(C)(=N)=O)CC2)nc(-c2ccnc3[nH]ccc23)n1 (stereo unspecified) + COC1C(OC(N)=O)C(O)C(Oc2ccc3c(O)c(NC(=O)c4ccc(O)c(CC=C(C)C)c4)c(=O)oc3c2C)OC1(C)C
- IC50 [1]: > 10 µM
- IC50 [2]: > 10 µM
- IC50 [3]: > 10 µM
- IC50 [4]: > 10 µM
- IC50 [5]: > 10 µM
- IC50 [6]: > 10 µM
- viability, T/C [7]: 103%
- viability, T/C [8]: 102%
- viability, T/C [9]: 95.4%
- viability, T/C [10]: 96.6%
- viability, T/C [11]: 79%
- viability, T/C [12]: 69.3%
- viability, T/C [13]: 89.8%
- viability, T/C [14]: 88%
- viability, T/C [15]: 90.2%
- viability, T/C [16]: 101%
- viability, T/C [17]: 73.3%
- viability, T/C [18]: 60.4%
- viability, T/C [19]: 98%
- viability, T/C [20]: 101%
- viability, T/C [21]: 106%
- viability, T/C [22]: 88.3%
- viability, T/C [23]: 78.8%
- viability, T/C [24]: 63%
- viability, T/C [25]: 119%
- viability, T/C [26]: 97.6%
- viability, T/C [27]: 108%
- viability, T/C [28]: 92.9%
- viability, T/C [29]: 77.8%
- viability, T/C [30]: 66.5%
- viability, T/C [31]: 108%
- viability, T/C [32]: 99.2%
- viability, T/C [33]: 98.1%
- viability, T/C [34]: 86.4%
- viability, T/C [35]: 69.3%
- viability, T/C [36]: 64.5%
- viability, T/C [37]: 104%
- viability, T/C [38]: 107%
- viability, T/C [39]: 90.7%
- viability, T/C [40]: 90.7%
- viability, T/C [41]: 86%
- viability, T/C [42]: 87.3%

SMILES: Cn1ncnc1[C@H]1c2n[nH]c(=O)c3cc(F)cc(c23)N[C@@H]1c1ccc(F)cc1
- viability, T/C (compound 0.000316 µM): 94.3% and 91% and 102%
- viability, T/C (compound 0.001 µM): 88.8% and 78.8% and 93%
- viability, T/C (compound 0.00316 µM): 95% and 104% and 108%
- viability, T/C (compound 0.01 µM): 80.8% and 104% and 106%
- viability, T/C (compound 0.0316 µM): 83.2% and 89.8% and 97.3%
- viability, T/C (compound 0.1 µM): 86.5% and 95.5% and 92.5%
- IC50 (curve of compound): > 0.1 µM

SMILES: CC1COCCN1c1cc(-c2ccnn2C)c2ccnc(-c3ccn[nH]3)c2n1 (stereo unspecified) + Cc1cccc(N(C)C(=O)C2C(O)CCN2c2nc(C)cc(C(F)(F)F)c2C#N)c1
- IC50 [1]: 2.33 µM
- IC50 [2]: > 10 µM
- IC50 [3]: 3.97 µM
- IC50 [4]: 5.14 µM
- IC50 [5]: > 10 µM
- IC50 [6]: > 10 µM
- viability, T/C [7]: 98.3%
- viability, T/C [8]: 99.1%
- viability, T/C [9]: 74.4%
- viability, T/C [10]: 58%
- viability, T/C [11]: 47.8%
- viability, T/C [12]: 45.4%
- viability, T/C [13]: 93.9%
- viability, T/C [14]: 90.3%
- viability, T/C [15]: 75.2%
- viability, T/C [16]: 59.4%
- viability, T/C [17]: 62.2%
- viability, T/C [18]: 56.1%
- viability, T/C [19]: 92.2%
- viability, T/C [20]: 86.8%
- viability, T/C [21]: 75.5%
- viability, T/C [22]: 58.6%
- viability, T/C [23]: 46.3%
- viability, T/C [24]: 51.8%
- viability, T/C [25]: 107%
- viability, T/C [26]: 89%
- viability, T/C [27]: 70.9%
- viability, T/C [28]: 59%
- viability, T/C [29]: 50.2%
- viability, T/C [30]: 48.8%
- viability, T/C [31]: 109%
- viability, T/C [32]: 108%
- viability, T/C [33]: 69.4%
- viability, T/C [34]: 55.2%
- viability, T/C [35]: 51.1%
- viability, T/C [36]: 51.3%
- viability, T/C [37]: 94.7%
- viability, T/C [38]: 86.5%
- viability, T/C [39]: 75.8%
- viability, T/C [40]: 65.4%
- viability, T/C [41]: 52.6%
- viability, T/C [42]: 53.8%
